{"source": "ChEMBL document CHEMBL6121047", "about": "“Design, Synthesis, and Evaluation of Selective PDE4 Inhibitors for the Therapy of Pulmonary Injury” (J Med Chem, 2025)", "key": {"[1]": {"molecular_target": "3',5'-cyclic-AMP phosphodiesterase 4B (Homo sapiens, UniProt Q07343)", "sequence (Q07343 whole entry)": "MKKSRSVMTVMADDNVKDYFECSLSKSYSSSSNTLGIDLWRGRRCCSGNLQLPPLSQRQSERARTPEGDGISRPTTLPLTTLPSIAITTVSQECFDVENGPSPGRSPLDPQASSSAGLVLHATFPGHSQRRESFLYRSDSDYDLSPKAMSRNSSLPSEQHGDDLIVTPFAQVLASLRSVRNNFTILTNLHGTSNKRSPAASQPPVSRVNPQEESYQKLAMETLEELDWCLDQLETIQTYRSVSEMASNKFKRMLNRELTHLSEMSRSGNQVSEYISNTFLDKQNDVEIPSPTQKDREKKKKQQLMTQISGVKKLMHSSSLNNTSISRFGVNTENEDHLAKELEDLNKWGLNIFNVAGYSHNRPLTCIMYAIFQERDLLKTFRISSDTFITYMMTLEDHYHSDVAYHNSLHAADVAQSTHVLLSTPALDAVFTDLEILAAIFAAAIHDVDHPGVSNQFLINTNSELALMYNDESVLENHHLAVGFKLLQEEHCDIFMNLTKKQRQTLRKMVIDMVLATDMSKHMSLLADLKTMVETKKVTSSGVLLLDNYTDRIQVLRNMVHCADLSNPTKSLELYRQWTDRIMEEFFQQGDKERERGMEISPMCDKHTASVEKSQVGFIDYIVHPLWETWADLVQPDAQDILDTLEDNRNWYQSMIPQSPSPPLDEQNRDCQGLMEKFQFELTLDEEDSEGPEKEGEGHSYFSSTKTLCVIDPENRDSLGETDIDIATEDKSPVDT", "test": "Inhibition of recombinant full length PDE4B (unknown origin) using FAM-cAMP as substrate at 1 uM preincubated with compound for compound for 15 mins followed by substrate addition and measured after 30 mins by Envision multilabel reader analysis relative to control", "details": "time 45.0 min"}, "[2]": {"tested_on": "HepG2", "test": "Cytotoxicity against human HepG2 cells assessed as reduction in cell viability incubated for 24 hrs by CCK-8 assay", "assay_type": "toxicity, cell-based", "details": "hepg2, 24 h"}, "[3]": {"molecular_target": "3',5'-cyclic-AMP phosphodiesterase 4A (Homo sapiens, UniProt P27815)", "sequence (P27815 whole entry)": "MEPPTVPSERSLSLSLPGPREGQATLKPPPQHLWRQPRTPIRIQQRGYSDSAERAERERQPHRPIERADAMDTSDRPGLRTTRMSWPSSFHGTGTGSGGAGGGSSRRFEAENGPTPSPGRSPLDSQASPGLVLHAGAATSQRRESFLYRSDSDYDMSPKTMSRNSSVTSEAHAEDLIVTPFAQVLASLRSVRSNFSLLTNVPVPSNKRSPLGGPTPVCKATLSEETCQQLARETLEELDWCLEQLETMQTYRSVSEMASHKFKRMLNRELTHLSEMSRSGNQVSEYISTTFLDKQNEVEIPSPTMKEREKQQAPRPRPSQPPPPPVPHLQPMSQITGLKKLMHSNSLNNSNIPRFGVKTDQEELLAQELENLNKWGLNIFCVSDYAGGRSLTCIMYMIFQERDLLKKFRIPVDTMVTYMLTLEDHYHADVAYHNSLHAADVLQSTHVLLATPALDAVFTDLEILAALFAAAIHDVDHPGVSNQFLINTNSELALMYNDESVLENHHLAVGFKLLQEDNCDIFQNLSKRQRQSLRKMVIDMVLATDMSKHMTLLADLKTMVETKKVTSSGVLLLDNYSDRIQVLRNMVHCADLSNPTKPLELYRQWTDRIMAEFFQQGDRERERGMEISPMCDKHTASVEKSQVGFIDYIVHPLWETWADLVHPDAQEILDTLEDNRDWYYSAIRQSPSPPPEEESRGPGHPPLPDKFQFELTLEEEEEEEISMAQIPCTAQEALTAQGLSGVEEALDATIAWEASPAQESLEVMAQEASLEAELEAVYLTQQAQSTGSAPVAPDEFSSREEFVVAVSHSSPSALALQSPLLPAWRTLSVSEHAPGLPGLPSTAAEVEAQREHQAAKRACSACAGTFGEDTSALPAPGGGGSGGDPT", "test": "Inhibition of PDE4A (unknown origin) using FAM-cAMP as substrate preincubated with compound for compound for 15 mins followed by substrate addition and measured after 30 mins by Envision multilabel reader analysis"}, "[4]": {"test": "Metabolic stability in monkey liver microsomes assessed as half life incubated for 4 hrs in presence of NADPH by LC-MS analysis", "assay_type": "ADME, Macaca mulatta, Microsome", "details": "rhesus monkey"}, "[5]": {"test": "Metabolic stability in dog liver microsomes assessed as half life incubated for 4 hrs in presence of NADPH by LC-MS analysis", "assay_type": "ADME, Canis lupus familiaris, Microsome"}, "[6]": {"test": "AUC (0 to t) in Sprague-Dawley rat at 10 mg/kg, po measured upto 24 hrs by LC-MS/MS analysis", "assay_type": "ADME, organism-based", "details": "in vivo"}, "[7]": {"test": "Initial plasma concentration in Sprague-Dawley rat at 5 mg/kg, iv measured upto 24 hrs by LC-MS/MS analysis", "assay_type": "ADME, organism-based"}, "[8]": {"test": "Half life in Sprague-Dawley rat at 10 mg/kg, po measured upto 24 hrs by LC-MS/MS analysis", "assay_type": "ADME, organism-based", "details": "in vivo"}, "[9]": {"test": "Tmax in Sprague-Dawley rat at 10 mg/kg, po measured upto 24 hrs by LC-MS/MS analysis", "assay_type": "ADME, organism-based", "details": "in vivo"}, "[10]": {"test": "Clearance in Sprague-Dawley rat at 5 mg/kg, iv measured upto 24 hrs by LC-MS/MS analysis", "assay_type": "ADME, organism-based", "details": "in vivo"}, "[11]": {"test": "Oral bioavailability in Sprague-Dawley rat at 10 mg/kg measured upto 24 hrs by LC-MS/MS analysis", "assay_type": "ADME, organism-based", "details": "in vivo"}, "[12]": {"tested_on": "RAW264.7", "test": "Cytotoxicity against mouse RAW264.7 cells assessed as reduction in cell viability incubated for 24 hrs by CCK-8 assay", "assay_type": "toxicity, cell-based", "details": "raw264.7, 24 h"}, "[13]": {"tested_on": "BEAS-2B", "test": "Anti-inflammatory activity in LPS-induced human BEAS-2B cells assessed as inhibition of TNF-alpha secretion level at 10 uM preincubated with compound for 1 hr followed by LPS addition and measured after 24 hrs by ELISA", "assay_type": "functional, cell-based", "details": "time 25.0 hrs"}, "[14]": {"test": "Acute toxicity in Sprague-Dawley rat assessed as increase in body weight at 1 g/Kg, po administered via gavage and measured on day 14", "assay_type": "organism-based", "details": "in vivo, 1000 mg/kg"}, "[15]": {"test": "Acute toxicity in Sprague-Dawley rat assessed as pathological changes in spleen at 1 g/Kg, po administered via gavage by H and E staining based analysis", "assay_type": "organism-based", "details": "in vivo, 1000 mg/kg"}, "[16]": {"test": "Acute toxicity in Sprague-Dawley rat assessed as pathological changes in lung at 1 g/Kg, po administered via gavage by H and E staining based analysis", "assay_type": "organism-based", "details": "in vivo, 1000 mg/kg"}, "[17]": {"test": "Acute toxicity in Sprague-Dawley rat assessed as effect on apparent heart coefficient change at 1 g/Kg, po administered via gavage", "assay_type": "organism-based", "details": "in vivo, 1000 mg/kg"}, "[18]": {"test": "Acute toxicity in Sprague-Dawley rat assessed as effect on apparent lung coefficient change at 1 g/Kg, po administered via gavage", "assay_type": "organism-based", "details": "in vivo, 1000 mg/kg"}, "[19]": {"test": "Acute toxicity in Sprague-Dawley rat assessed as effect on apparent kidney coefficient change at 1 g/Kg, po administered via gavage", "assay_type": "organism-based", "details": "in vivo, 1000 mg/kg"}, "[20]": {"test": "Acute toxicity in Sprague-Dawley rat assessed as effect on apparent spleen coefficient change at 1 g/Kg, po administered via gavage", "assay_type": "organism-based", "details": "in vivo, 1000 mg/kg"}, "[21]": {"test": "Toxicity in female Beagle dog assessed as emesis at 1 to 3 mg/kg, po administered once via gavage and measured within 24 hrs", "assay_type": "organism-based, Canis lupus familiaris", "details": "in vivo, dose 1-3 mg/kg"}, "[22]": {"tested_on": "Mus musculus", "test": "Anti-inflammatory activity against LPS-induced acute lung injury male BALB/c mouse model assessed as reduction in IL-6 level in BALF at 8 to 32 mg/kg administered once a day via gavage for 7 days followed by LPS stimulation and measured after 24 hrs", "assay_type": "functional, organism-based", "details": "dose 8-32 mg/kg, time 192.0 hrs"}, "[23]": {"tested_on": "Mus musculus", "test": "Anti-inflammatory activity against LPS-induced acute lung injury male BALB/c mouse model assessed as reduction in TNF-alpha level in BALF at 8 to 32 mg/kg administered once a day via gavage for 7 days followed by LPS stimulation and measured after 24 hrs", "assay_type": "functional, organism-based", "details": "dose 8-32 mg/kg, time 192.0 hrs"}, "[24]": {"tested_on": "Mus musculus", "test": "Anti-inflammatory activity against LPS-induced acute lung injury male BALB/c mouse model assessed as restoration of alveolar septa in lung at 8 to 32 mg/kg administered once a day via gavage for 7 days followed by LPS stimulation and measured after 24 hrs by H and E staining based analysis", "assay_type": "functional, organism-based", "details": "dose 8-32 mg/kg, time 192.0 hrs"}, "[25]": {"tested_on": "Mus musculus", "test": "Anti-inflammatory activity against LPS-induced acute lung injury male BALB/c mouse model assessed as relaxation of alveolar in lung at 8 to 32 mg/kg administered once a day via gavage for 7 days followed by LPS stimulation and measured after 24 hrs by H and E staining based microscopic analysis", "assay_type": "functional, organism-based", "details": "dose 8-32 mg/kg, time 192.0 hrs"}, "[26]": {"tested_on": "Mus musculus", "test": "Anti-inflammatory activity against LPS-induced acute lung injury male BALB/c mouse model assessed as enlarged bronchiole tubes in lung at 8 to 32 mg/kg administered once a day via gavage for 7 days followed by LPS stimulation and measured after 24 hrs by H and E staining based microscopic analysis", "assay_type": "functional, organism-based", "details": "dose 8-32 mg/kg, time 192.0 hrs"}, "[27]": {"tested_on": "Mus musculus", "test": "Antifibrotic activity against LPS-induced acute lung injury male BALB/c mouse model assessed as decrease in collagen deposition at 8 to 32 mg/kg administered once a day via gavage for 7 days followed by LPS stimulation and measured after 24 hrs by masson staining based microscopic analysis", "assay_type": "functional, organism-based", "details": "dose 8-32 mg/kg, time 192.0 hrs"}, "[28]": {"tested_on": "Mus musculus", "test": "(§1) Anti-inflammatory activity against cigarette-smoke/LPS-induced COPD male C57BL/6 mouse model assessed as reduction in TNF-alpha level in BALF at 5 mg/kg pretreated with cigarette smoke exposure for 21 weeks with subsequent LPS induction twice on the first and 15th day followed by compound administration every day via gavage for 4 weeks", "assay_type": "functional, organism-based"}, "[29]": {"tested_on": "Mus musculus", "test": "as §1, with “IL-6” for “TNF-alpha”", "assay_type": "functional, organism-based"}, "[30]": {"tested_on": "NCI-H292", "test": "Anti-inflammatory activity against EGF-induced human NCI-H292 cells assessed as decrease in MUC5AC mRNA expression by RT-qPCR analysis", "assay_type": "functional, cell-based", "details": "dose 10-50 µM"}, "[31]": {"tested_on": "Mus musculus", "test": "Enhancement of sputum secretion in male BALB/c mouse model assessed as increase in phenol red secretion in BALF at 4 to 32 mg/kg administered every day via gavage for 7 days followed by phenol red administration at 1 hrs post last dose and measured after 30 mins", "assay_type": "functional, organism-based", "details": "dose 4-32 mg/kg, time 169.5 hrs"}, "[32]": {"tested_on": "Mus musculus", "test": "Antitussive activity in male BALB/c mouse model assessed as delay in cough incubation period at 32 mg/kg administered every day via gavage for 7 days at 1 hrs post last dose and measured within 3 min", "assay_type": "functional, organism-based", "details": "time 169.05 hrs"}, "[33]": {"tested_on": "Mus musculus", "test": "Antitussive activity in male BALB/c mouse model assessed as reduction in cough frequency at 32 mg/kg administered every day via gavage for 7 days at 1 hrs post last dose and measured within 3 min", "assay_type": "functional, organism-based", "details": "time 169.05 hrs"}, "[34]": {"tested_on": "RAW264.7", "test": "Anti-inflammatory activity in LPS-induced mouse RAW264.7 cells assessed as decrease in p38 MAPK protein level by Western blotting analysis", "assay_type": "functional, cell-based"}, "[35]": {"tested_on": "RAW264.7", "test": "cells", "details": "Mus musculus"}, "[36]": {"tested_on": "RAW264.7", "test": "cells", "details": "Mus musculus", "remark": "listed apart in the source"}}, "note": "Activity calls are given as the source filed them. The rule behind the calls is not given here."}
{"smiles": "O=C(Nc1nccs1)c1cccc2[nH]c(-c3ccc(OC(F)F)c(OCC4CC4)c3)nc12", "values": [{"measurement": "inhibition", "setting": "[1]", "value": 89.9, "unit": "%"}, {"measurement": "Activity", "setting": "[2]", "value": "Non-toxic"}, {"measurement": "IC50", "setting": "[3]", "value": 0.0897, "unit": "µM"}, {"measurement": "half-life", "setting": "[4]", "value": 0.737, "unit": "h"}, {"measurement": "half-life", "setting": "[5]", "value": 0.721, "unit": "h"}, {"measurement": "AUC(0-t) at 24 h", "setting": "[6]", "value": 2.13, "unit": "µg·h/mL"}, {"measurement": "C0 at 24 h", "setting": "[7]", "value": 38.1, "unit": "µg/mL"}, {"measurement": "half-life", "setting": "[8]", "value": 3.75, "unit": "h"}, {"measurement": "Tmax", "setting": "[9]", "value": 3, "unit": "h"}, {"measurement": "clearance", "setting": "[10]", "value": 0.217, "unit": "L/h/kg"}, {"measurement": "bioavailability", "setting": "[11]", "value": 4.59, "unit": "%"}, {"measurement": "Activity", "setting": "[12]", "value": "Non-toxic"}, {"measurement": "Activity", "setting": "[13]", "value": "Active"}, {"measurement": "Activity", "setting": "[14]", "value": "Non-toxic"}, {"measurement": "Activity", "setting": "[15]", "value": "Non-toxic"}, {"measurement": "Activity", "setting": "[16]", "value": "Non-toxic"}, {"measurement": "Activity", "setting": "[17]", "value": "Non-toxic"}, {"measurement": "Activity", "setting": "[18]", "value": "Non-toxic"}, {"measurement": "Activity", "setting": "[19]", "value": "Non-toxic"}, {"measurement": "Activity", "setting": "[20]", "value": "Non-toxic"}, {"measurement": "Activity", "setting": "[21]", "value": "Non-toxic"}, {"measurement": "Activity", "setting": "[22]", "value": "Active"}, {"measurement": "Activity", "setting": "[23]", "value": "Active"}, {"measurement": "Activity", "setting": "[24]", "value": "Active"}, {"measurement": "Activity", "setting": "[25]", "value": "Active"}, {"measurement": "Activity", "setting": "[26]", "value": "Active"}, {"measurement": "Activity", "setting": "[27]", "value": "Active"}, {"measurement": "Activity", "setting": "[28]", "value": "Active"}, {"measurement": "Activity", "setting": "[29]", "value": "Active"}, {"measurement": "Activity", "setting": "[30]", "value": "Dose-dependent-effect"}, {"measurement": "Activity", "setting": "[31]", "value": "Active"}, {"measurement": "Activity", "setting": "[32]", "value": "Active"}, {"measurement": "Activity", "setting": "[33]", "value": "Active"}, {"measurement": "Activity", "setting": "[34]", "value": "Active"}, {"measurement": "IC50", "setting": "[35]", "value": 29.5, "unit": "µM"}, {"measurement": "IC50", "setting": "[36]", "value": 30.1, "unit": "µM"}]}
